Patent publication US12577247B2 (BUGWORKS RESEARCH, INC., priority 2021, dated 2026)

Legend:
A2B receptor = target: T1, A2B receptor (Homo sapiens, UniProt P29275); experiment: A2bR antagonism IC50, cAMP TR-FRET in HEK-293 cells, high concentration of adenosine (30 μM); details: A2BR IC50 (nM) (@30 μM Adenosine), HEK-293 cells expressing A2B receptor; agonist adenosine 30 μM; 2% HSA; inhibition of cAMP;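 further: compounds preincubated 10 min with cells, then adenosine stimulation 30 min at room temperature in buffer with Rolipram 100 µM and EHNA 30 µM, TR-FRET read after 1 h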
T1 sequence (P29275 1-332): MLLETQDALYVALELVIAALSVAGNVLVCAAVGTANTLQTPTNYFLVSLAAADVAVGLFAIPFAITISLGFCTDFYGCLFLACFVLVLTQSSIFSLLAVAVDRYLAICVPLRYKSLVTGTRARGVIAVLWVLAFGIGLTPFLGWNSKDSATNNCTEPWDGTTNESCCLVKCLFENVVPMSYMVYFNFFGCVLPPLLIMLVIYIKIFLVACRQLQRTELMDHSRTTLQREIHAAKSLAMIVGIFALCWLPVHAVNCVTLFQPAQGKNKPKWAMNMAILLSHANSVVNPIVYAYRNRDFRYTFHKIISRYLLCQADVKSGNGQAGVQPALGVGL

A2A receptor = target: T2, A2A receptor (Homo sapiens, UniProt P29274); experiment: A2aR antagonism IC50, cAMP TR-FRET in HEK-293 cells, high concentration of adenosine (30 μM); type: cell-based; details: HEK-293 cells expressing A2A receptor; agonist adenosine 30 μM; 2% HSA; inhibition of cAMP; read-out: A2AR IC50 (nM) (@30 μM Adenosine);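 further: compounds added 10 min before adenosine, then 30 min stimulation at room temperature in buffer with 100 µM rolipram and 30 µM EHNA, signal read 1 h after detection reagents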
T2 construct: host or cells: HEK-293
T2 sequence (P29274 whole entry): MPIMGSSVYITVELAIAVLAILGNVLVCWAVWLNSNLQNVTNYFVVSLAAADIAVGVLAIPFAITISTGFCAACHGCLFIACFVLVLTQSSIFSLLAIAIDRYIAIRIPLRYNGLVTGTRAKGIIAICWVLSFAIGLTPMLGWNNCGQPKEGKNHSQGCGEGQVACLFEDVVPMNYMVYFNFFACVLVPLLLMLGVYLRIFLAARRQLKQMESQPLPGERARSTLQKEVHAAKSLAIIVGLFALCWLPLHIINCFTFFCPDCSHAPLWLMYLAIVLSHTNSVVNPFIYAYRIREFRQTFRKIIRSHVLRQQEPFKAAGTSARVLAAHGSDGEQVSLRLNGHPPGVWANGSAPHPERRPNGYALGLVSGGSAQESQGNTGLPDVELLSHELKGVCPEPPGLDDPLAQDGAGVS

| Structure (SMILES) | IC50 (A2B receptor) [nM] | IC50 (A2A receptor) [nM] |
| --- | --- | --- |
| Cc1nn2c(N)c(C#N)c(NCCc3ccn(CC4CC(O)C4)n3)nc2c1Cl (single isomer, unassigned; (-)) [Example 84, (−)-7-amino-3-chloro-5-((2-(1-((3-hydroxycyclobutyl)methyl)-1H-pyrazol-3-yl)ethyl)amino)-2-methylpyrazolo[1,5-a]pyrimidine-6-carbonitrile] | 4250 | 102 |
| Cc1cncc(CCNc2nc3c(C)c(C)nn3c(N)c2C#N)n1 [Example 140, 7-amino-2,3-dimethyl-5-((2-(6-methylpyrazin-2-yl)ethyl)amino) pyrazolo[1,5-a]pyrimidine-6-carbonitrile] | > 15000 | 6020 |
| CCCc1c(C)nn2c(N)c(C#N)c(NCCc3cccn(CCCO)c3=O)nc12 [Example 156, 7-amino-5-((2-(1-(3-hydroxypropyl)-2-oxo-1,2-dihydropyridin-3-yl)ethyl)amino)-2-methyl-3-propylpyrazolo[1,5-a]pyrimidine-6-carbonitrile] | 2950 | 750 |
| CCc1c(C)nn2c(N)c(C#N)c(NCCc3cccc(CNCCO)n3)nc12 [Example 97, 7-amino-3-ethyl-5-((2-(6-(((2-hydroxyethyl)amino)methyl)pyridine-2-yl)ethyl)amino)-2-methylpyrazolo[1,5-a]pyrimidine-6-carbonitrile] | 1430 | 451 |
| Cc1nn2c(N)c(C#N)c(NCCc3ccn(C4(CCN)CC4)n3)nc2c1Cl [Example 151, 7-amino-5-((2-(1-(1-(2-aminoethyl)cyclopropyl)-1H-pyrazol-3-yl)ethyl)amino)-3-chloro-2-methylpyrazolo[1,5-a]pyrimidine-6-carbonitrile] | 4610 | 95 |
| Cc1nn2c(N)c(C#N)c(NCCc3cccn(CCCN)c3=O)nc2c1Cl [Example 129, 7-amino-5-((2-(1-(3-aminopropyl)-2-oxo-1,2-dihydropyridin-3-yl)ethyl)amino)-3-chloro-2-methylpyrazolo[1,5-a]pyrimidine-6-carbonitrile] | 5660 | 237 |
| CCc1c(C)nn2c(N)c(C#N)c(NCCc3ccn(C4(CCNC(C)=O)CC4)n3)nc12 [Example 149, N-(2-(1-(3-(2-((7-amino-6-cyano-3-ethyl-2-methylpyrazolo[1,5-a]pyrimidin-5-yl)amino)ethyl)-1H-pyrazol-1-yl)cyclopropyl)ethyl) acetamide] | 988 | 43 |
| CCc1c(C)nn2c(N)c(C#N)c(NCCc3cccn(CC[S+](C)[O-])c3=O)nc12 (racemic) [Example 143, Racemic (+−)7-amino-3-ethyl-2-methyl-5-((2-(1-(2-(methylsulfinyl)ethyl)-2-oxo-1,2-dihydropyridin-3-yl)ethyl)amino) pyrazolo[1,5-a]pyrimidine-6-carbonitrile] | 1340 | 667 |
| Cc1nn2c(N)c(C#N)c(NCCc3cnn(C4(CO)CC4)c3)nc2c1Cl [Example 73, 7-amino-3-chloro-5-((2-(1-(1-(hydroxymethyl)cyclopropyl)-1H-pyrazol-4-yl)ethyl)amino)-2-methylpyrazolo[1,5-a] pyrimidine-6-carbonitrile] | > 15000 | > 15000 |
| CCc1c(C)nn2c(N)c(C#N)c(NCCc3ccn(C4(CCN)CC4)n3)nc12 [Example 148, 7-amino-5-((2-(1-(1-(2-aminoethyl)cyclopropyl)-1H-pyrazol-3-yl)ethyl)amino)-3-ethyl-2-methylpyrazolo[1,5-a] pyrimidine-6-carbonitrile] | 2740 | 161 |
| CCc1c(C)nn2c(N)c(C#N)c(NCCc3ccn(CCCO)n3)nc12 [Example 111, 7-amino-3-ethyl-5-((2-(1-(3-hydroxypropyl)-1H-pyrazol-3-yl)ethyl)amino)-2-methylpyrazolo[1,5-a]pyrimidine-6-carbonitrile] | 2380 | 666 |
| Cc1nn2c(N)c(C#N)c(NCCc3ccn(C4(CNCCO)CC4)n3)nc2c1Cl [Example 98, 7-amino-3-chloro-5-((2-(1-(1-(((2-hydroxyethyl)amino)methyl)cyclopropyl)-1H-pyrazol-3-yl)ethyl)amino)-2-methylpyrazolo[1,5-a]pyrimidine-6-carbonitrile] | > 15000 | 100 |
| Cc1nn2c(N)c(C#N)c(NCCc3ccn(C4CCC4CNCCO)n3)nc2c1Cl (stereo not shown) [Example 117, 7-amino-3-chloro-5-((2-(1-(2-(((2-hydroxyethyl)amino)methyl)cyclobutyl)-1H-pyrazol-3-yl)ethyl)amino)-2-methylpyrazolo[1,5-a]pyrimidine-6-carbonitrile] | 3060 | 66 |
| Cc1nn2c(N)c(C#N)c(NCCc3cc(C)n(C4(CO)CC4)n3)nc2c1Cl [Example 75, 7-amino-3-chloro-5-((2-(1-(1-(hydroxymethyl)cyclopropyl)-5-methyl-1H-pyrazol-3-yl)ethyl)amino)-2-methylpyrazolo[1,5-a]pyrimidine-6-carbonitrile] | 7150 | 43 |
| CCc1c(C)nn2c(N)c(C#N)c(NCCc3cc(C)n(C4COCC4CO)n3)nc12 (single isomer, unassigned) [Example 167] | 700 | 100 |
| Cc1nn2c(N)c(C#N)c(NCCc3ccn(C4(CCO)CC4)n3)nc2c1Cl [Example 112, 7-amino-3-chloro-5-((2-(1-(1-(2-hydroxyethyl)cyclopropyl)-1H-pyrazol-3-yl)ethyl)amino)-2-methylpyrazolo[1,5-a] pyrimidine-6-carbonitrile] | 10800 | 84 |
| CCc1c(C)nn2c(N)c(C#N)c(NCCc3cccn(CC4CC(O)C4)c3=O)nc12 (stereo not shown) [Example 128, 7-amino-3-ethyl-5-((2-(1-((3-hydroxycyclobutyl)methyl)-2-oxo-1,2-dihydropyridin-3-yl)ethyl)amino)-2-methylpyrazolo[1,5-a]pyrimidine-6-carbonitrile] | 1110 | 368 |
| CCc1c(C)nn2c(N)c(C#N)c(NCCc3cc(C)n(C4COCC4CO)n3)nc12 (single isomer, unassigned; (+)) [Example 168] | 650 | 90 |
| Cc1nn2c(N)c(C#N)c(NCCc3cccc(CCO)n3)nc2c1C [Example 152, 7-amino-5-((2-(6-(2-hydroxyethyl)pyridin-2-yl)ethyl)amino)-2,3-dimethylpyrazolo[1,5-a] pyrimidine-6-carbonitrile] | 1790 | 209 |

Other lines, results leading:

| IC50 (A2B receptor) [nM] | IC50 (A2A receptor) [nM] | Structure (SMILES) |
| --- | --- | --- |
| 11100 | 72 | CCc1c(C)nn2c(N)c(C#N)c(NCCc3ccn(C4(CNCC[S+](C)[O-])CC4)n3)nc12 (single isomer, unassigned; (-)) [Example 163a, (−)-7-amino-3-ethyl-2-methyl-5-((2-(1-(1-(((2-(methylsulfinyl)ethyl)amino)methyl)cyclopropyl)-1H-pyrazol-3-yl)ethyl)amino) pyrazolo[1,5-a]pyrimidine-6-carbonitrile] |
| 2610 | 102 | Cc1nn2c(N)c(C#N)c(NCCc3ccn(C4CCC4CO)n3)nc2c1C (single isomer, unassigned; (-)) [Example 104b, (−)-7-amino-5-((2-(1-(2-(hydroxymethyl)cyclobutyl)-1H-pyrazol-3-yl)ethyl)amino)-2,3-dimethylpyrazolo[1,5-a]pyrimidine-6-carbonitrile] |
| 6070 | 136 | Cc1nn2c(N)c(C#N)c(NCCc3ccn(C4COCC4CO)n3)nc2c1C (single isomer, unassigned; (-)) [Example 133b, (−)-7-amino-5-((2-(1-(4-(hydroxymethyl)tetrahydrofuran-3-yl)-1H-pyrazol-3-yl)ethyl)amino)-2,3-dimethylpyrazolo[1,5-a]pyrimidine-6-carbonitrile] |
| 12200 | 82 | CCc1c(C)nn2c(N)c(C#N)c(NCCc3ccn(C4(CNCC[S+](C)[O-])CC4)n3)nc12 (single isomer, unassigned; (+)) [Example 163b, (+)-7-amino-3-ethyl-2-methyl-5-((2-(1-(1-(((2-(methylsulfinyl)ethyl)amino)methyl)cyclopropyl)-1H-pyrazol-3-yl)ethyl)amino) pyrazolo[1,5-a]pyrimidine-6-carbonitrile] |
| 2260 | 88 | Cc1nn2c(N)c(C#N)c(NCCc3ccn(C4CCC4CO)n3)nc2c1C (single isomer, unassigned; (+)) [Example 104a, (+)-7-amino-5-((2-(1-(2-(hydroxymethyl)cyclobutyl)-1H-pyrazol-3-yl)ethyl)amino)-2,3-dimethylpyrazolo[1,5-a]pyrimidine-6-carbonitrile] |
| 1410 | 1010 | CCc1c(C)nn2c(N)c(C#N)c(NCCc3cccn(CCC[S+](C)[O-])c3=O)nc12 (single isomer, unassigned; (+)) [Example 154b, (+)-7-amino-3-ethyl-2-methyl-5-((2-(1-(3-(methylsulfinyl)propyl)-2-oxo-1,2-dihydropyridin-3-yl)ethyl)amino) pyrazolo[1,5-a]pyrimidine-6-carbonitrile] |
| 707 | 289 | CCc1c(C)nn2c(N)c(C#N)c(NCCc3ccn(C4COCC4CO)n3)nc12 (single isomer, unassigned; (+)) [Example 122a, (+)-7-amino-3-ethyl-5-((2-(1-(4-(hydroxymethyl)tetrahydrofuran-3-yl)-1H-pyrazol-3-yl)ethyl)amino)-2-methyl pyrazolo[1,5-a]pyrimidine-6-carbonitrile] |
